According to patent US9334246B2, “Substituted triazines for malaria treatment and chemoprophylaxis” (The United States of America, as represented by the …, priority 2013, dated 2016):

What was measured:
Format in all cases: cell-based, Plasmodium falciparum
P. falciparum W2 = test: Malaria SYBR Green Fluorescence Assay, W2 strain; details: for W2: SYBR Green Assay
P. falciparum D6 = test: Malaria SYBR Green Fluorescence Assay, D6 strain; details: for D6: SYBR Green Assay
P. falciparum C235 = test: Malaria SYBR Green Fluorescence Assay, C235 strain; details: for C235: SYBR Green Assay

Row | Compound | W2 (P. falciparum W2) | W2 (SYBR Green Assay IC50) (P. falciparum W2) | also measured
1 | COc1ccccc1-c1nc(NCc2cccnc2)nc(C(Cl)(Cl)Cl)n1 [Cmpd 154] | 477 ng/mL |  | 
2 | Clc1cc(Cl)cc(-c2nc(NCCc3cnccn3)nc(C(Cl)(Cl)Cl)n2)c1 [Cmpd 471] |  | 0.174 µg/mL | 
3 | COc1ccccc1-c1nc(NCCc2cccnc2)nc(C(Cl)(Cl)Cl)n1 [Cmpd 182] | 256 ng/mL |  | D6 (P. falciparum D6): 659 ng/mL
4 | CS(=O)(=O)c1ccc(-c2nc(NCc3ccncc3)nc(C(Cl)(Cl)Cl)n2)cc1 [Compound 650, CS(═O)(═O)c1ccc(cc1)c2nc(NCc3ccncc3)nc(n2)C(Cl)(Cl)Cl] |  | 0.803 µg/mL | 
5 | COc1ccc(-c2nc(NC3CCN(C)CC3)nc(C(Cl)(Cl)Cl)n2)cc1 [Cmpd 275] | 618 ng/mL |  | C235 (P. falciparum C235): 699 ng/mL
6 | CC(C)(C)c1ccc(-c2nc(NCc3ccccn3)nc(C(Cl)(Cl)Cl)n2)cc1 [Cmpd 170] | 313 ng/mL |  | 
7 | COc1ccc(-c2nc(NC3CCN(C)CC3)nc(C(Cl)(Cl)Cl)n2)cc1OC [Cmpd 399] |  | 0.705 µg/mL | 
8 | COc1ccccc1Cc1nc(N2CCCN(C)CC2)nc(C(Cl)(Cl)Cl)n1 [Cmpd 289] | 311 ng/mL |  | D6 (P. falciparum D6): 810 ng/mL
9 | COc1ccc(-c2nc(NCCc3cnccn3)nc(C(Cl)(Cl)Cl)n2)c2ccccc12 [Cmpd 546] |  | 0.361 µg/mL | C235 (SYBR Green Assay IC50) (P. falciparum C235): 0.701 µg/mL
10 | CN(C)C1CCC(Nc2nc(-c3ccc(C(Cl)(Cl)Cl)cc3)nc(C(Cl)(Cl)Cl)n2)CC1 (stereo not drawn) [Cmpd 597] |  | 0.882 µg/mL | 
11 | NC1(CNc2nc(-c3ccc(C(Cl)(Cl)Cl)cc3)nc(C(Cl)(Cl)Cl)n2)CC1 [Compound 679, NC1(CNC2═NC(═NC(═N2)C2═CC═C(C═C2)C(Cl)(Cl)Cl)C(Cl)(Cl)Cl)CC1] | 201 ng/mL |  | D6 (P. falciparum D6): 606 ng/mL
12 | COc1ccccc1-c1nc(NCc2ccncc2)nc(C(Cl)(Cl)Cl)n1 [Cmpd 135] | 461 ng/mL |  | D6 (P. falciparum D6): 765 ng/mL
13 | COc1ccc(-c2nc(NCc3cccnc3)nc(C(Cl)(Cl)Cl)n2)cc1 [Cmpd 156] | 560 ng/mL |  | 
14 | CCN(CC)CCCC(C)Nc1nc(Nc2ccc(Cl)c(Cl)c2)nc(n1)C(Cl)(Cl)Cl [Compound 646] |  | 0.7354 µg/mL | D6 (SYBR Green Assay IC50) (P. falciparum D6): 0.6727 µg/mL
15 | CS(═O)(═O)c1ccc(cc1)c2nc(nc(n2)C(Cl)(Cl)Cl)N3CCC(CC3)C(═O)N [Compound 690] | 670 ng/mL |  | 
16 | ClC(Cl)(Cl)c1nc(NCc2cccnc2)nc(-c2ccc(-c3ccccc3)cc2)n1 [Cmpd 249] | 545 ng/mL |  | C235 (P. falciparum C235): 755 ng/mL
17 | CN1CCCC1CCNc1nc(-c2ccc(S(C)(=O)=O)cc2)nc(C(Cl)(Cl)Cl)n1 (stereo not drawn) [Cmpd 75] |  |  | D6 (P. falciparum D6): 635 ng/mL
18 | CC(C)(C)OC(=O)N1CC2CC1CN2c1nc(-c2ccc(Cl)c(Cl)c2)nc(C(Cl)(Cl)Cl)n1 (stereo not drawn) [Compound 705, CC(C)(C)OC(═O)N1CC2CC1CN2c3nc(nc(n3)C(Cl)(Cl)Cl)c4ccc(Cl)c(Cl)c4] | 851.8 ng/mL |  | 
19 | CCN1CCC(CNc2nc(Nc3cccnc3OC)nc(C(Cl)(Cl)Cl)n2)CC1 [Cmpd 352] |  | 0.6372 µg/mL | D6 (SYBR Green Assay IC50) (P. falciparum D6): 0.7908 µg/mL
20 | Cc1ccc(-c2ccccc2-c2nc(N3CCCNCC3)nc(C(Cl)(Cl)Cl)n2)cc1 [Cmpd 263] | 960 ng/mL |  | C235 (P. falciparum C235): 763 ng/mL
21 | CSc1ccc(-c2nc(NCCc3cnccn3)nc(C(Cl)(Cl)Cl)n2)cc1 [Cmpd 543] |  | 0.669 µg/mL | 
22 | NC1(CNc2nc(-c3cccc(C(F)(F)F)c3)nc(C(Cl)(Cl)Cl)n2)CCCCC1 [Compound 663, NC1(CNC2═NC(═NC(═N2)C2═CC(═CC═C2)C(F)(F)F)C(Cl)(Cl)Cl)CCCCC1] | 583 ng/mL |  | D6 (P. falciparum D6): 729 ng/mL
23 | COc1ncccc1Nc1nc(-c2ccc(S(C)(=O)=O)cc2)nc(C(Cl)(Cl)Cl)n1 [Compound 651, COc1ncccc1Nc2nc(nc(n2)C(Cl)(Cl)Cl)c3ccc(cc3)S(═O)(═O)C] |  | 0.577 µg/mL | D6 (SYBR Green Assay IC50) (P. falciparum D6): 0.76 µg/mL
24 | CC(C)(C)c1ccc(-c2nc(N3CCOCC3)nc(C(Cl)(Cl)Cl)n2)cc1 [Compound 734, CC(C)(C)c1ccc(cc1)c2nc(nc(n2)C(Cl)(Cl)C1)N3CCOCC3] | 834 ng/mL |  | 
25 | CN(CCc1ccccn1)c2nc(nc(n2)C(Cl)(Cl)Cl)c3ccc(cc3)C(C)(C)C [Compound 736] | 445.4 ng/mL |  | 
26 | Cc1ccc(-c2nc(N3CC4CC3CN4C(=O)OC(C)(C)C)nc(C(Cl)(Cl)Cl)n2)cc1 (stereo not drawn) [Compound 711, Cc1ccc(cc1)c2nc(nc(n2)C(Cl)(Cl)Cl)N3CC4CC3CN4C(═O)OC(C)(C)C] |  |  | D6 (P. falciparum D6): 812 ng/mL
27 | Cc1ccc(-c2nc(N3CCN(CCO)CC3)nc(C(Cl)(Cl)Cl)n2)cc1 [Cmpd 416] |  | 0.381 µg/mL | 
28 | CN1CCCC1CCNc1nc(-c2ccc(-c3ccccc3)cc2)nc(C(Cl)(Cl)Cl)n1 (stereo not drawn) [Cmpd 201] | 845 ng/mL |  | 
29 | Clc1ccc(-c2nc(NCCc3cnccn3)nc(C(Cl)(Cl)Cl)n2)cc1Cl [Cmpd 470] |  | 0.07 µg/mL | C235 (SYBR Green Assay IC50) (P. falciparum C235): 0.258 µg/mL
